# Experimental data as given in PubChem BioAssay (NCI).
#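 Exposure lasted 48 hours, with cells grown in 96-well plates and compounds tested at five concentrations. Abbreviation: GI50, concentration required for 50% inhibition of growth. At the TGI there is no net growth.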
# Tests used:
# Assay in all cases: growth of human tumour cells (NCI), 48 h
# 786-0 renal = system: 786-0 renal
# A498 renal = system: A498 renal
# A549 NSCLC = system: A549 NSCLC
# ACHN renal = system: ACHN renal
# BT-549 breast = system: BT-549 breast
# CAKI-1 renal = system: CAKI-1 renal
# CCRF-CEM leukemia = system: CCRF-CEM leukemia
# COLO 205 colon = system: COLO 205 colon
# DU-145 prostate = system: DU-145 prostate
# EKVX NSCLC = system: EKVX NSCLC
# HCC-2998 colon = system: HCC-2998 colon
# HCT-116 colon = system: HCT-116 colon
# HCT-15 colon = system: HCT-15 colon
# HL-60(TB) leukemia = system: HL-60(TB) leukemia
# HOP-62 NSCLC = system: HOP-62 NSCLC
# HOP-92 NSCLC = system: HOP-92 NSCLC
# HS 578T breast = system: HS 578T breast
# HT29 colon = system: HT29 colon
# IGROV1 ovarian = system: IGROV1 ovarian
# K-562 leukemia = system: K-562 leukemia
# KM12 colon = system: KM12 colon
# LOX IMVI melanoma = system: LOX IMVI melanoma
# M14 melanoma = system: M14 melanoma
# MALME-3M melanoma = system: MALME-3M melanoma
# MCF7 breast = system: MCF7 breast
# MDA-MB-435 = system: MDA-MB-435
# MDA-MB-468 breast = system: MDA-MB-468 breast
# MOLT-4 leukemia = system: MOLT-4 leukemia
# NCI-H226 lung = system: NCI-H226 lung
# NCI-H23 lung = system: NCI-H23 lung
# NCI-H460 lung = system: NCI-H460 lung
# NCI-H522 lung = system: NCI-H522 lung
# NCI/ADR-RES ovarian = system: NCI/ADR-RES ovarian
# OVCAR-3 ovarian = system: OVCAR-3 ovarian
# OVCAR-4 ovarian = system: OVCAR-4 ovarian
# OVCAR-5 ovarian = system: OVCAR-5 ovarian
# OVCAR-8 ovarian = system: OVCAR-8 ovarian
# PC-3 prostate = system: PC-3 prostate
# RPMI-8226 leukemia = system: RPMI-8226 leukemia
# RXF 393 renal = system: RXF 393 renal
# SF-268 CNS = system: SF-268 CNS
# SF-295 CNS = system: SF-295 CNS
# SF-539 CNS = system: SF-539 CNS
# SK-MEL-28 melanoma = system: SK-MEL-28 melanoma
# SK-MEL-5 melanoma = system: SK-MEL-5 melanoma
# SK-OV-3 ovarian = system: SK-OV-3 ovarian
# SN12C renal = system: SN12C renal
# SNB-19 CNS = system: SNB-19 CNS
# SR leukemia = system: SR leukemia
# SW-620 colon = system: SW-620 colon
# T-47D breast = system: T-47D breast
# TK-10 renal = system: TK-10 renal
# U251 CNS = system: U251 CNS
# UACC-257 melanoma = system: UACC-257 melanoma
# UACC-62 melanoma = system: UACC-62 melanoma
smiles,measurement,setting,value
O=C1N/C(=N\c2nccs2)S/C1=C\c1ccc([N+](=O)[O-])cc1,GI50,786-0 renal,6.17 µM
same,TGI,786-0 renal,72.9 µM
same,GI50,A498 renal,14.5 µM
same,TGI,A498 renal,39.8 µM
same,GI50,A549 NSCLC,4.89 µM
same,TGI,A549 NSCLC,> 100 µM
same,GI50,ACHN renal,5.49 µM
same,TGI,ACHN renal,35.2 µM
same,GI50,BT-549 breast,6.87 µM
same,TGI,BT-549 breast,41.4 µM
same,GI50,CAKI-1 renal,12.7 µM
same,TGI,CAKI-1 renal,82.8 µM
same,GI50,CCRF-CEM leukemia,3.84 µM
same,TGI,CCRF-CEM leukemia,32.5 µM
same,GI50,COLO 205 colon,7.7 µM
same,TGI,COLO 205 colon,23.9 µM
same,GI50,DU-145 prostate,11.9 µM
same,TGI,DU-145 prostate,> 100 µM
same,GI50,EKVX NSCLC,4.71 µM
same,TGI,EKVX NSCLC,27.8 µM
same,GI50,HCC-2998 colon,6.93 µM
same,TGI,HCC-2998 colon,30.4 µM
same,GI50,HCT-116 colon,4.44 µM
same,TGI,HCT-116 colon,19 µM
same,GI50,HCT-15 colon,4.29 µM
same,TGI,HCT-15 colon,> 100 µM
same,GI50,HL-60(TB) leukemia,3.62 µM
same,TGI,HL-60(TB) leukemia,24.5 µM
same,GI50,HOP-62 NSCLC,6.77 µM
same,TGI,HOP-62 NSCLC,60.7 µM
same,GI50,HOP-92 NSCLC,4.46 µM
same,TGI,HOP-92 NSCLC,38.3 µM
same,GI50,HS 578T breast,11.6 µM
same,TGI,HS 578T breast,81.6 µM
same,GI50,HT29 colon,18.5 µM
same,TGI,HT29 colon,> 100 µM
same,GI50,IGROV1 ovarian,6.89 µM
same,TGI,IGROV1 ovarian,30.8 µM
same,GI50,K-562 leukemia,4.24 µM
same,TGI,K-562 leukemia,> 100 µM
same,GI50,KM12 colon,5.91 µM
same,TGI,KM12 colon,32.4 µM
same,GI50,LOX IMVI melanoma,4.75 µM
same,TGI,LOX IMVI melanoma,34.2 µM
same,GI50,M14 melanoma,9.86 µM
same,TGI,M14 melanoma,39.6 µM
same,GI50,MALME-3M melanoma,11.2 µM
same,TGI,MALME-3M melanoma,27.2 µM
same,GI50,MCF7 breast,4.44 µM
same,TGI,MCF7 breast,20.4 µM
same,GI50,MDA-MB-435,12 µM
same,TGI,MDA-MB-435,> 100 µM
same,GI50,MDA-MB-468 breast,4.62 µM
same,TGI,MDA-MB-468 breast,25.8 µM
same,GI50,MOLT-4 leukemia,2.54 µM
same,TGI,MOLT-4 leukemia,7.5 µM
same,GI50,NCI-H226 lung,12.5 µM
same,TGI,NCI-H226 lung,68.2 µM
same,GI50,NCI-H23 lung,6.8 µM
same,TGI,NCI-H23 lung,70 µM
same,GI50,NCI-H460 lung,4.12 µM
same,TGI,NCI-H460 lung,19.7 µM
same,GI50,NCI-H522 lung,7.47 µM
same,TGI,NCI-H522 lung,33.9 µM
same,GI50,NCI/ADR-RES ovarian,5.03 µM
same,TGI,NCI/ADR-RES ovarian,37.3 µM
same,GI50,OVCAR-3 ovarian,4.73 µM
same,TGI,OVCAR-3 ovarian,29.4 µM
same,GI50,OVCAR-4 ovarian,7.01 µM
same,TGI,OVCAR-4 ovarian,67.5 µM
same,GI50,OVCAR-5 ovarian,16.1 µM
same,TGI,OVCAR-5 ovarian,95.6 µM
same,GI50,OVCAR-8 ovarian,6.43 µM
same,TGI,OVCAR-8 ovarian,68.9 µM
same,GI50,PC-3 prostate,5.98 µM
same,TGI,PC-3 prostate,> 100 µM
same,GI50,RPMI-8226 leukemia,3.56 µM
same,TGI,RPMI-8226 leukemia,31.6 µM
same,GI50,RXF 393 renal,12.4 µM
same,TGI,RXF 393 renal,46.3 µM
same,GI50,SF-268 CNS,10.1 µM
same,TGI,SF-268 CNS,> 100 µM
same,GI50,SF-295 CNS,5.11 µM
same,TGI,SF-295 CNS,40.5 µM
same,GI50,SF-539 CNS,5.62 µM
same,TGI,SF-539 CNS,26.9 µM
same,GI50,SK-MEL-28 melanoma,14 µM
same,TGI,SK-MEL-28 melanoma,> 100 µM
same,GI50,SK-MEL-5 melanoma,7.45 µM
same,TGI,SK-MEL-5 melanoma,20.2 µM
same,GI50,SK-OV-3 ovarian,15.7 µM
same,TGI,SK-OV-3 ovarian,63.9 µM
same,GI50,SN12C renal,5.47 µM
same,TGI,SN12C renal,63.5 µM
same,GI50,SNB-19 CNS,3.58 µM
same,TGI,SNB-19 CNS,70.6 µM
same,GI50,SR leukemia,3.41 µM
same,TGI,SR leukemia,18 µM
same,GI50,SW-620 colon,4.77 µM
same,TGI,SW-620 colon,> 100 µM
same,GI50,T-47D breast,5.05 µM
same,TGI,T-47D breast,53.1 µM
same,GI50,TK-10 renal,12.8 µM
same,TGI,TK-10 renal,59.3 µM
same,GI50,U251 CNS,4.6 µM
same,TGI,U251 CNS,> 100 µM
same,GI50,UACC-257 melanoma,12.4 µM
same,TGI,UACC-257 melanoma,32.5 µM
same,GI50,UACC-62 melanoma,5.08 µM
same,TGI,UACC-62 melanoma,23.1 µM
